In patent US20250312469A1 (CANGET BIOTEKPHARMA, priority 2024, published 2025):
Where “and” joins values, the source holds several entries; their conditions need not be identical. Equal entries are not always repeated.

How the values were obtained:
[1] = tested on: L5178Y TK+/− mouse lymphoma cells; experiment: Mouse Lymphoma Assay (MLA); conditions: for Avg. ACE / Avg. MF / Avg. RTG / Avg. SG: 4 h summary
Protocol: The cells were prepared in Fischer's or RPMI media supplemented with 10% heat-inactivated horse serum, penicillin-streptomycin, Lglutamine, sodium pyruvate and Pluronic F68. In the initial assay, prior to use in the test, the culture was purged of preexisting TK−/− mutations by exposure to THMG treated medium for 1 day, followed by a transfer to THG medium for 1 to 2 days. This was performed 5 to 8 days prior to testing. In the expanded assay a vial of frozen cells was thawed and used within 5 to 8 days of growth. No washing was needed because the cells were purged of preexisting TK−/− mutations by exposure to THMG treated medium for 1 day and then THG medium for 1 day prior to freezing. […] Colonies were counted using an automated colony counter or manually. After 4 or 24 hours of exposure, the cells were grown for recovery and expression for approximately 48 hours before plated in TFT cloning media. A second set of plates were prepared without TFT to assess viability of cells following treatment. […] Colonies observed on the TFT plate were defined as small or large colonies. […] (3) Of note, the metabolic activation system in this assay consisted of a rat liver homogenate (S-9 microsomal fraction), which was delivered to the test system in the presence of a core mix consisting of NADP and cofactors for NADPH-supported oxidation. The S9 was prepared using the following recipe (per treatment tube); 1 mL of 20 mg/mL S9, 32 mg of NADP, 60 mg of isocitric acid, 40 μL of calcium chloride (CaCl2) and 3.0 mL of cell cultural media. All treatments were performed in duplicate. The treatment tubes were placed in a CO2 incubator at 37±1° C. with continuous agitation.

[2] = tested on: pancreatic cancer PDX14244 or PDX17624 tumors; experiment: Western blots of pancreatic cancer PDX tumors after oral treatment; format: in vivo, SCID mice; conditions: 5 mg/kg oral; day 1-3
Protocol: The collected tumor tissues were then homogenized with untrasound and analyzed using the corresponding antibodies for DDX5, Agrin, YAP1, p-FAK, FAK, Integrin and Actin via Western blots. Actin expression is the internal control of total protein loading.
For frozen prostate cancer tissue specimens and their adjacent non-tumor tissues (if any) obtained from Roswell Park pathology network, 30-50 mg of each tissue in a 1.5 Eppendorf tube containing 500 μL of 2×SDS lysis buffer containing Tris pH 6.8+4% SDS+10% Glycerol were homogenized through ultrasound treatment for 10-15 second per time with 3-6 times until tumor tissue was lysed. After all tissues were processed, 1.5 mL tubes were centrifuged at 13,000 rom in a microcentrifuge for 1-2 min and then the supernatant in each tube was transferred into a new 1.5 mL tube for protein concentration measurement (refer to the section of “Studies with Human patient tumor specimens” for more information). […] Proteins of interest were detected using Western Lightning ECL-Plus (Perkin Elmer, Waltham, MA) and visualized by various times (3-120 seconds) of exposure. Actin, tubulin and/or GAPDH were detected as the internal control to normalize total protein loading for each sample.

[3] = tested on: P-gp; experiment: in vitro; conditions: human
Protocol: Cell monolayers were grown to confluence on collagen-coated, microporous, polycarbonate membranes in 12-well Costar Transwell R plates. […] The permeability assay buffer was Hanks' balanced salt solution (HBSS) containing 10 mM HEPES and 15 mM glucose at a pH of 7.4. The buffer in the receiver chamber also contained 1% bovine serum albumin. […] Cells were first pre-incubated for 30 minutes with HBSS containing+/−1 μM valspodar. Cell monolayers were dosed on the apical side (A-to-B) or basolateral side (B-to-A) and incubated at 37° C. with 5% CO2 in a humidified incubator. Samples were taken from the donor and receiver chambers at 120 minutes. Each determination was performed in duplicate. The flux of co-dosed lucifer yellow was also measured for each monolayer to ensure no damage was inflicted to the cell monolayers during the flux period. All samples were assayed by LC-MS/MS using electrospray ionization. […] The apparent permeability (Papp) and percent recovery were calculated as follows:
Where, dCr/dt is the slope of the cumulative concentration in the receiver compartment versus time in μM s^−1;Vr is the volume of the receiver compartment in. cm^3; Vd is the volume of the donor compartment in cm^3; A is the area of the insert (1.13 cm^2 for 12-well Transwell); CA is the average of the nominal dosing concentration and the measured 120 minute donor concentration in μM; CN is the nominal concentration of the dosing solution in μM; Cr^Final is the cumulative receiver concentration in μM at the end of the incubation period; and Cd^Final is the concentration of the donor in μM at the end of the incubation period.
Efflux ratio (ER) is defined as Papp (B-to-A)/Papp (A-to-B)

[4] = format: physicochemical; conditions: solid state of powder
Protocol: Laboratory XRPD patterns from the samples will be collected at 25° C. The diffraction data were collected over the angular range of 2θ=3°−40° with a step size of 2θ=0.02° and accounting time of 0.12 s/step.

[5] = tested on: TA100; experiment: Ames Bacterial Reverse Mutation Assay
Protocol: The Ames Bacterial Reverse Mutation (AB™) used five bacterial tester strains (TA97a, TA98, TA100, TA1535, WP2-uvrA).
Tester strains were added to flasks containing nutrient broth and incubated at 37+2° C. overnight. The flasks were removed from the overnight incubation and the final concentration was determined (the OD was measured and determined whether growth was suitable for testing). Top agar was melted, and 2.0 mL was dispensed into heated culture tubes. The S9 mix (metabolic activation) was prepared and stored on ice. […] Each culture tube was vortexed and immediately poured onto the labeled minimal glucose agar plates. All plates were inverted and placed into a 37±1° C. incubator for 48-72 hours. The plates were counted via an automated colony counter or by hand and the background lawn was microscopically evaluated for any signs of toxicity. Genotypic control plates were prepared for each tester strain and incubated for 24-72 hours at 37±1° C.

With `CCC1(O)C(=O)OCc2c1cc1n(c2=O)Cc2cc3cc4c(cc3nc2-1)OCO4` (stereo not shown) [FL118] the “concentrations considered unable to induce mutation” value (“concentrations considered unable” for short) ([1]; 4-hour +S9) was ≤ 320 nM, the “concentrations considered positive (mutagenic/clastogenic)” value ([1]; 4-hour -S9) was > 100 nM and the “concentrations considered unable” value ([1]; 4-hour -S9) was ≤ 32 nM. The “Average SG” value ([1]; 4 h, +S9, 0.1 uM) was 12.9, the “Day 1 Growth Cell Conc.” value ([1]; 4 h, +S9, 0.1 uM) was 6.71E+05 Cell/mL and 7.82E+05 Cell/mL and the “Day 2 Growth Cell Conc.” value ([1]; 4 h, +S9, 0.1 uM) was 1.55E+06 Cell/mL and 1.64E+06 Cell/mL. For the same molecule, the “Suspension Growth (SG)” value ([1]; 4 h, +S9, 0.1 uM) was 11.4 and 14.3, the “Average SG” value ([1]; 4 h, +S9, 1 uM) was 10.7 and the “Day 1 Growth Cell Conc.” value ([1]; 4 h, +S9, 1 uM) was 7.55E+05 Cell/mL and 6.56E+05 Cell/mL. The “Day 2 Growth Cell Conc.” value ([1]; 4 h, +S9, 1 uM) was 1.27E+06 Cell/mL and 1.45E+06 Cell/mL, the “Suspension Growth (SG)” value ([1]; 4 h, +S9, 1 uM) was 10.5 and 10.8 and the “concentrations considered positive (mutagenic/clastogenic)” value ([1]; 4 hour +S9) was > 1000 nM. For the same molecule, the “Avg. ACE” value ([1]; +S9, 0.1 uM) was 82.5%, the “Avg. MF” value ([1]; +S9, 0.1 uM) was 71 ×10^−6 and the “Avg. RTG” value ([1]; +S9, 0.1 uM) was 98.8%. For the same molecule, the “Avg. SG” value ([1]; +S9, 0.1 uM) was 12.9, the “Avg. ACE” value ([1]; +S9, 1 uM) was 62.3% and the “Avg. MF” value ([1]; +S9, 1 uM) was 231 ×10^−6. The “Avg. RTG” value ([1]; +S9, 1 uM) was 81.5%, the “Avg. SG” value ([1]; +S9, 1 uM) was 10.7 and the “Average SG” value ([1]; 24 h, 0.001 uM) was 66.2. For the same molecule, the “Suspension Growth (SG)” value ([1]; 24 h, 0.001 uM) was 55.8 and 65.5, the “Average SG” value ([1]; 24 h, 0.1 uM) was 29.1 and the “Suspension Growth (SG)” value ([1]; 24 h, 0.1 uM) was 29.0 and 29.1. The “concentrations considered positive (mutagenic/clastogenic)” value ([1]; 24 hour -S9) was ≥ 100 nM, the “concentrations considered unable” value ([1]; 24 hour -S9) was ≤ 32 nM and the “DDX5, Agrin, YAP1, p-FAK, Integrin in PDX tumors” value [2] was “more profound decrease”. It also gave a Papp A→B at 120 min, 1 μM ([3]; Caco-2, pH 7.4, Papp AVG, Caco-2, A-to-B, without valspodar) of 6.97 ×10⁻⁶ cm/s, a Papp B→A at 120 min, 1 μM ([3]; Caco-2, pH 7.4, Papp AVG, Caco-2, B-to-A, without valspodar) of 8.1 ×10⁻⁶ cm/s and a Papp A→B at 120 min, 1 μM ([3]; Caco-2, pH 7.4, Papp R1, Caco-2, A-to-B, without valspodar) of 7.27 ×10⁻⁶ cm/s. The Papp B→A at 120 min, 1 μM ([3]; Caco-2, pH 7.4, Papp R1, Caco-2, B-to-A, without valspodar) was 7.35 ×10⁻⁶ cm/s, the Papp A→B at 120 min, 1 μM ([3]; Caco-2, pH 7.4, Papp R2, Caco-2, A-to-B, without valspodar) was 6.67 ×10⁻⁶ cm/s and the Papp B→A at 120 min, 1 μM ([3]; Caco-2, pH 7.4, Papp R2, Caco-2, B-to-A, without valspodar) was 8.86 ×10⁻⁶ cm/s. The recovery at 120 min, 1 µM ([3]; Caco-2, pH 7.4, Recovery (%), Caco-2, A-to-B, without valspodar) was 43%, the recovery at 120 min, 1 µM ([3]; Caco-2, pH 7.4, Recovery (%), Caco-2, B-to-A, without valspodar) was 48% and the recovery at 120 min, 1 µM ([3]; Caco-2, pH 7.4, with valspodar 1 µM, Recovery (%), Caco-2, A-to-B, + 1 μM Valspodar) was 46%. The recovery at 120 min, 1 µM ([3]; Caco-2, pH 7.4, with valspodar 1 µM, Recovery (%), Caco-2, B-to-A, + 1 μM Valspodar) was 48%, the XRPD [4] was “Weak crystal” and the bacterial strain mutation [5] was “does not induce”. The “mean revertant colonies over negative control” value ([5]; +/− S9) was “less than 2 fold”, the “Background Lawn Code” value ([5]; TA100, 0.010 μM +S9) was 1 and the “Colony Counts Average” value ([5]; TA100, 0.010 μM +S9) was 92. For the same molecule, the “Colony Counts Replicate 1-3” value ([5]; TA100, 0.010 μM +S9) was 101 and 96 and 79, the “Background Lawn Code” value ([5]; TA100, 0.010 μM −S9) was 1 and the “Colony Counts Average” value ([5]; TA100, 0.010 μM −S9) was 77. The “Colony Counts Replicate 1-3” value ([5]; TA100, 0.010 μM −S9) was 72 and 79 and 80, the “Background Lawn Code” value ([5]; TA100, 0.10 μM +S9) was 1 and the “Colony Counts Average” value ([5]; TA100, 0.10 μM +S9) was 89. The “Colony Counts Replicate 1-3” value ([5]; TA100, 0.10 μM +S9) was 96 and 74 and 98, the “Background Lawn Code” value ([5]; TA100, 0.10 μM −S9) was 1 and the “Colony Counts Average” value ([5]; TA100, 0.10 μM −S9) was 87. The “Colony Counts Replicate 1-3” value ([5]; TA100, 0.10 μM −S9) was 89 and 77 and 94, the “Background Lawn Code” value ([5]; TA100, 1.0 μM +S9) was 1 and the “Colony Counts Average” value ([5]; TA100, 1.0 μM +S9) was 99. The “Colony Counts Replicate 1-3” value ([5]; TA100, 1.0 μM +S9) was 105 and 106 and 87, the “Background Lawn Code” value ([5]; TA100, 1.0 μM −S9) was 1 and the “Colony Counts Average” value ([5]; TA100, 1.0 μM −S9) was 83. For the same molecule, the “Colony Counts Replicate 1-3” value ([5]; TA100, 1.0 μM −S9) was 94 and 75 and 81.
